Experimental data from patent US9650390B2, “Water-soluble taxane derivatives and uses thereof” (priority 2014, dated 2017).

Legend:
[1] = tested on: human non-small cell lung cancer NCI-H446; experiment: Inhibitory activity of larotaxel and tesetaxel derivatives on subcutaneously xenografted tumor NCI-H446 in nude mice; conditions: D0 IV; for Weight change (%) D5: nude mice; for T/C (%) D20 / Tumor volume (mm^3) (D20) / Tumor inhibitory percent (%) D20 / Tumor volume (mm^3) (D0): NCI-H446 xenograft in nude mice; for Tumor inhibitory percent (%) D20: P = 0.000 vs control; for Tumor volume (mm^3) (D0): baseline at grouping (D0)
From the text: Human […] NCI-H446 cells were subcutaneously inoculated into nude mice.

[2] = In vitro dissociation in blood plasma of rat; type: in vitro ADME, SD rats; conditions: fresh SD rat plasma, 37° C.; for Sampling time/Dissociation percent (%) 2 min: 2 min incubation; for Sampling time/Dissociation percent (%) 5 min: 5 min incubation; for Sampling time/Dissociation percent (%) 10 min: 10 min incubation
Description: The obtained water soluble taxane derivatives of the following formulae were formulated as 0.2 mg/ml aqueous solutions. […] After 2 min, 5 min and 10 min of incubation, 0.2 ml of solutions were respectively taken from each of the samples, and added to acetonitrile (0.4 ml) cooled to −20° C. for precipitation of protein.

[3] = In vitro dissociation in blood plasma of rabbit; type: in vitro ADME, New Zealand white rabbits; conditions: fresh New Zealand white rabbit plasma, 37° C.
Description: The obtained water soluble taxane derivatives of the following formulae were formulated as 0.2 mg/ml aqueous solutions. […]

[4] = SD rats, 5 mg/kg intravenous, 5 min after administration, LC-MS
Description: After 5 min of administration, 0.3 ml of venous blood was taken from the retrobulbar venous plexus of the rats, placed in heparinized tubes, and centrifuged at 11,000 rpm for 5 min. Plasma was separated, and the concentrations of the compounds in the plasma were determined by liquid chromatography □-mass spectrometry.

[5] = tested on: human prostate cancer PC-3; experiment: Inhibitory activity of cabazitaxel derivatives on subcutaneously xenografted tumor PC-3 in nude mice; conditions: 13 mg/kg, D0 IV
From the text: Purpose: to evaluate and compare the inhibitory activity of the water soluble cabazitaxel derivatives and cabazitaxel on subcutaneously xenografted tumor of human prostate cancer PC-3 in nude mice.
Human prostate cancer PC-3 cells were subcutaneously inoculated into nude mice. After the tumor volume reached 100-150 mm^3, the animals were randomly divided into several groups, and administered with the water soluble cabazitaxel derivatives of the following formula and cabazitaxel, respectively once on the same day (D0). The tumor volume was measured 2-3 times per week, the animals were weighed and the data were recorded until day 20 (D20) after grouping.
The tumor volume (V) was calculated according to the equation: V=½×a×b^2, wherein a and b represent the length and the width, respectively.
T/C (%)=(T−T0)/(C−C0)×100, wherein T and C represent the tumor volume at the end of the experiment; and T0 and C0 represent the tumor volume at the beginning of the experiment.

[6] = D20, PC-3 xenograft in nude mice

## CC(=O)OC1C(=O)C23CC2CC2OCC2(OC(C)=O)C3C(OC(=O)c2ccccc2)C2(O)CC(OC(=O)C(OC(=O)C(CCN(C)C(C)C)C(F)(F)F)C(NC(=O)OC(C)(C)C)c3ccccc3)C(C)=C1C2(C)C.O=C(O)C=CC(=O)O (mixture of isomers) [Compound C41, 2′-O-[4-N-methyl-N-isopropylamino-2(R,S)-2-trifluoromethylbutyryl]larotaxel maleate]
[1]; 12 mg/kg
  Weight change (%) D5: −10.5%
  T/C (%) D20: −34%
  Tumor volume (mm^3) (D20): 51.7 ± 11.9 mm^3
  Tumor inhibitory percent (%) D20: 67%
  Tumor volume (mm^3) (D0): 109.8 ± 2.9 mm^3

## CC(=O)OC12COC1CCC1(C)C3OC(CN(C)C)OC3C3=C(C)C(OC(=O)C(OC(=O)C(CCN(C)C(C)C)C(F)(F)F)C(NC(=O)OC(C)(C)C)c4ncccc4F)CC(O)(C(OC(=O)c4ccccc4)C12)C3(C)C.O=C(O)CCC(=O)O (mixture of isomers) [Compound C45, 2′-O-[4-N-methyl-N-isopropylamino-2(R,S)-2-trifluoromethylbutyryl]tesetaxel succinate]
[1]; 12 mg/kg
  Weight change (%) D5: −11.4%
  T/C (%) D20: −34%
  Tumor volume (mm^3) (D20): 53.4 ± 12.4 mm^3
  Tumor inhibitory percent (%) D20: 85%
  Tumor volume (mm^3) (D0): 112.3 ± 3.1 mm^3

## CC(=O)OC12COC1CCC1(C)C3OC(CN(C)C)OC3C3=C(C)C(OC(=O)C(OC(=O)C(F)CC(C)N4CCCC4)C(NC(=O)OC(C)(C)C)c4ncccc4F)CC(O)(C(OC(=O)c4ccccc4)C12)C3(C)C.O=S(=O)(O)O (mixture of isomers) [Compound C46, 2′-O-[4-(pyrrolidin-1-yl)amino-2(R,S)-fluorovaleryl]tesetaxel sulfate]
[1]; 12 mg/kg
  T/C (%) D20: −23%
  Tumor volume (mm^3) (D20): 61.2 ± 14.2 mm^3
  Tumor inhibitory percent (%) D20: 58%
  Tumor volume (mm^3) (D0): 111.7 ± 2.8 mm^3

## CC(=O)OC12COC1CC(O)C1(C)C(=O)C(O)C3=C(C)C(OC(=O)C(OC(=O)C(F)CCN(C)C)C(NC(=O)OC(C)(C)C)c4ccccc4)CC(O)(C(OC(=O)c4ccccc4)C21)C3(C)C.Cl [Compound 04, 2′-O-[4-N,N-dimethylamino-2(R)-fluorobutyryl]docetaxel hydrochloride]
[2]
  Sampling time/Dissociation percent (%) 2 min: 58.6%
  Sampling time/Dissociation percent (%) 5 min: 92.6%
  Sampling time/Dissociation percent (%) 10 min: 100%
[3]
  Sampling time/Dissociation percent (%) 2 min: 80.2%
  Sampling time/Dissociation percent (%) 5 min: 93.5%
  Sampling time/Dissociation percent (%) 10 min: 100%
[4]
  detection of the administered compound in the blood plasma: cannot be detected
  mean concentration of docetaxel in the blood plasma: 1506 ng/mL

## CC(=O)O[C@@]12CO[C@@H]1C[C@H](O)[C@@]1(C)C(=O)[C@H](O)C3=C(C)[C@@H](OC(=O)[C@H](OC(=O)[C@@H](F)CCN(C)C)[C@@H](NC(=O)OC(C)(C)C)c4ccccc4)C[C@@](O)([C@@H](OC(=O)c4ccccc4)[C@H]21)C3(C)C.Cl [Compound 05, 2′-O-[4-N,N-dimethylamino-2(S)-fluorobutyryl]docetaxel hydrochloride]
[2]
  Sampling time/Dissociation percent (%) 2 min: 56.4%
  Sampling time/Dissociation percent (%) 5 min: 91.1%
  Sampling time/Dissociation percent (%) 10 min: 100%
[3]
  Sampling time/Dissociation percent (%) 2 min: 79.3%
  Sampling time/Dissociation percent (%) 5 min: 91.8%
  Sampling time/Dissociation percent (%) 10 min: 100%
[4]
  detection of the administered compound in the blood plasma: cannot be detected
  mean concentration of docetaxel in the blood plasma: 1387 ng/mL

## CO[C@H]1C(=O)[C@]2(C)[C@@H](OC)C[C@H]3OC[C@@]3(OC(C)=O)[C@H]2[C@H](OC(=O)c2ccccc2)[C@]2(O)C[C@H](OC(=O)[C@H](OC(=O)C(F)CCN(C)C)[C@@H](NC(=O)OC(C)(C)C)c3ccccc3)C(C)=C1C2(C)C.CS(=O)(=O)O (stereo partly drawn) [Compound C9, 2′-O-[4-N,N-dimethylamino-2(R,S)-fluorobutyryl]cabazitaxel methanesulfonate]
[2]
  Sampling time/Dissociation percent (%) 2 min: 49.3%
  Sampling time/Dissociation percent (%) 5 min: 88.6%
  Sampling time/Dissociation percent (%) 10 min: 100%
[3]
  Sampling time/Dissociation percent (%) 2 min: 81.2%
  Sampling time/Dissociation percent (%) 5 min: 96.7%
  Sampling time/Dissociation percent (%) 10 min: 100%
[5]; D6, nude mice
  Weight change (%) D6: −14.4%
[5]; [6]
  T/C (%) D20: −66%
  Tumor volume (mm^3) (D20): 32.5 ± 11.6 mm^3
[5]; D20, PC-3 xenograft in nude mice, P = 0.000 vs control
  Tumor inhibitory percent (%) D20: 151%
[5]; baseline at grouping (D0), PC-3 xenograft in nude mice
  Tumor volume (mm^3) (D0): 111.4 ± 2.3 mm^3

## CC(=O)O[C@H]1C(=O)[C@]23C[C@H]2C[C@H]2OC[C@@]2(OC(C)=O)[C@H]3[C@H](OC(=O)c2ccccc2)[C@]2(O)C[C@H](OC(=O)[C@H](OC(=O)[C@H](F)CCN(C)C)[C@@H](NC(=O)OC(C)(C)C)c3ccccc3)C(C)=C1C2(C)C.Cl [Compound C39, 2′-O-[4-N,N-dimethylamino-2(R)-fluorobutyryl]larotaxel hydrochloride]
[1]; 12 mg/kg
  Weight change (%) D5: −8.5%
  T/C (%) D20: −62%
  Tumor volume (mm^3) (D20): 34.9 ± 13.3 mm^3
  Tumor inhibitory percent (%) D20: 148%
  Tumor volume (mm^3) (D0): 111.5 ± 2.2 mm^3

## CCN(C)CCC(F)C(=O)OC(C(=O)OC1CC2(O)C(OC(=O)c3ccccc3)C3C4(OC(C)=O)COC4CC4CC43C(=O)C(OC(C)=O)C(=C1C)C2(C)C)C(NC(=O)OC(C)(C)C)c1ccccc1.Cl [Compound C40, 2′-O-[4-N-methyl-N-ethylamino-2(R,S)-fluorobutyryl]larotaxel hydrochloride]
[1]; 12 mg/kg
  Weight change (%) D5: −9.1%
  T/C (%) D20: −51%
  Tumor volume (mm^3) (D20): 43.2 ± 12.7 mm^3
  Tumor inhibitory percent (%) D20: 122%
  Tumor volume (mm^3) (D0): 112.4 ± 1.8 mm^3

## CC(=O)O[C@@]12CO[C@@H]1CC[C@@]1(C)[C@@H]3O[C@H](CN(C)C)O[C@@H]3C3=C(C)[C@@H](OC(=O)[C@H](OC(=O)[C@H](F)CCN(C)C)[C@@H](NC(=O)OC(C)(C)C)c4ncccc4F)C[C@@](O)([C@@H](OC(=O)c4ccccc4)[C@@H]12)C3(C)C.Cl [Compound C43, 2′-O-[4-N,N-dimethylamino-2(R)-fluorobutyryl]tesetaxel hydrochloride]
[1]; 12 mg/kg
  T/C (%) D20: −61%
  Tumor volume (mm^3) (D20): 31.8 ± 11.1 mm^3
  Tumor inhibitory percent (%) D20: 153%
  Tumor volume (mm^3) (D0): 111.5 ± 2.2 mm^3

## CCN(CC)CCC(F)C(=O)OC(C(=O)OC1CC2(O)C(OC(=O)c3ccccc3)C3C(C)(CCC4OCC43OC(C)=O)C3OC(CN(C)C)OC3C(=C1C)C2(C)C)C(NC(=O)OC(C)(C)C)c1ncccc1F.Cl [Compound C44, 2′-O-[4-N,N-diethylamino-2(S)-fluorobutyryl]tesetaxel hydrochloride]
[1]; 12 mg/kg
  T/C (%) D20: −49%
  Tumor volume (mm^3) (D20): 41.3 ± 10.9 mm^3
  Tumor inhibitory percent (%) D20: 123%
  Tumor volume (mm^3) (D0): 113.6 ± 2.8 mm^3

## CC(=O)O[C@H]1C(=O)[C@]23C[C@H]2C[C@H]2OC[C@@]2(OC(C)=O)[C@H]3[C@H](OC(=O)c2ccccc2)[C@]2(O)C[C@H](OC(=O)[C@H](O)[C@@H](NC(=O)OC(C)(C)C)c3ccccc3)C(C)=C1C2(C)C [larotaxel, reference compound]
[1]; 7 mg/kg
  Weight change (%) D5: −8.4%
  T/C (%) D20: −64%
  Tumor volume (mm^3) (D20): 33.3 ± 12.4 mm^3
  Tumor inhibitory percent (%) D20: 153%
  Tumor volume (mm^3) (D0): 110.9 ± 2.4 mm^3

## CC(=O)O[C@@]12CO[C@@H]1CC[C@@]1(C)[C@@H]3O[C@H](CN(C)C)O[C@@H]3C3=C(C)[C@@H](OC(=O)[C@H](O)[C@@H](NC(=O)OC(C)(C)C)c4ncccc4F)C[C@@](O)([C@@H](OC(=O)c4ccccc4)[C@@H]12)C3(C)C [tesetaxel, reference compound]
[1]; 8 mg/kg
  T/C (%) D20: −58%
  Tumor volume (mm^3) (D20): 33.7 ± 12.1 mm^3
  Tumor inhibitory percent (%) D20: 146%
  Tumor volume (mm^3) (D0): 112.8 ± 2.2 mm^3
